According to patent US20230183237A1, “COMPETITIVE AND NONCOMPETITIVE INHIBITORS OF THE MUSCARINIC ACETYLCHOLINE RECEPTOR M5” (Vanderbilt University, priority 2020, published 2023):
Like-named read-outs stand apart in the source and are kept apart here.

Biological target: T1, hM5 (Homo sapiens, UniProt P08912)
T1 construct: expressed in transfected cells
T1 sequence (P08912 1-532): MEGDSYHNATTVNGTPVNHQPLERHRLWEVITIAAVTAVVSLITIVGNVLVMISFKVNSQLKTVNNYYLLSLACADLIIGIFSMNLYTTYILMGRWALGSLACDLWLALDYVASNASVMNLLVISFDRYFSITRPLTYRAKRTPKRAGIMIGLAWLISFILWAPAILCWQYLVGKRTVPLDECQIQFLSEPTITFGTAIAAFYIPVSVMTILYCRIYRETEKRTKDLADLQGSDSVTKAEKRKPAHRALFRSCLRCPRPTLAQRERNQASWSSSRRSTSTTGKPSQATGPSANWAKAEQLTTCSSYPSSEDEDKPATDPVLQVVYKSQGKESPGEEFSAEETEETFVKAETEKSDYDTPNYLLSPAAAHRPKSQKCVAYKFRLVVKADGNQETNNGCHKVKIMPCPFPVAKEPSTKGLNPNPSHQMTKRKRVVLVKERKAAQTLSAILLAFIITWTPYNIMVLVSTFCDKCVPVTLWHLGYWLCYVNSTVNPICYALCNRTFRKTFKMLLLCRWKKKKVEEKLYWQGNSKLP
Experiment: Calcium mobilization concentration-response (IC50 vs EC80 acetylcholine), CHO hM5
Format: cell-based
Details: CELL LINE hM5, read-out: IC50
Procedure, shortened: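 CHO cells stably expressing hM5, dye-loaded, in HBSS/20 mM HEPES/2.5 mM probenecid, pH 7.4. Compounds were pre-incubated 140 s before an EC80 acetylcholine challenge, with calcium flux read kinetically.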

[1] = calcium mobilization, EC80 acetylcholine addition

Compound	IC50 (vs EC80 acetylcholine) [nM]	IC50 [1] [nM]
CO[C@@H]1CN(S(=O)(=O)c2cnn(C)c2C)CC[C@H]1c1cn2ncnc2cc1C (racemic) [Compound 411, (rac)-6-(trans-1-((1,5-dimethyl-1H-pyrazol-4-yl)sulfonyl)-3-methoxypiperidin-4-yl)-7-methyl-[1,2,4]triazolo[1,5-a]pyridine]	288	
Cc1cc2ncnn2cc1C1=C(C#N)CN(S(=O)(=O)c2cnn(C)c2Cl)CC1 [Compound 469, 1-((5-chloro-1-methyl-1H-pyrazol-4-yl)sulfonyl)-4-(7-methyl-[1,2,4]triazolo[1,5-a]pyridin-6-yl)-1,2,5,6-tetrahydropyridine-3-carbonitrile]	1640	
Cc1cc2nncn2cc1C1CCN(S(=O)(=O)c2ccc3c(c2)CCO3)CC1 [Compound 50, 6-(1-((2,3-dihydrobenzofuran-5-yl)sulfonyl)piperidin-4-yl)-7-methyl-[1,2,4]triazolo[4,3-a]pyridine]		> 10000
Cc1ncc(S(=O)(=O)N2CCC(c3cnc(C(F)(F)F)cc3C)CC2)s1 [Compound 397, 2-methyl-5-((4-(4-methyl-6-(trifluoromethyl)pyridin-3-yl)piperidin-1-yl)sulfonyl)thiazole]	> 10000	
Cc1cc2c(cc1C1CCN(S(=O)(=O)c3cnc(C)n3C)CC1)OCO2 [Compound 373, 1-((1,2-dimethyl-1H-imidazol-5-yl)sulfonyl)-4-(6-methylbenzo[d][1,3]dioxol-5-yl)piperidine]		13
Cc1cc2nccnc2cc1C1CCN(S(=O)(=O)c2cnn(C)c2C)CC1 [Compound 425, 6-(1-((1,5-dimethyl-1H-pyrazol-4-yl)sulfonyl)piperidin-4-yl)-7-methylquinoxaline]	72	
O=S(=O)(c1cc2c(cc1F)OCC2)N1CCC(c2cc3cc[nH]c3cn2)CC1 [Compound 93, 5-(1-((6-fluoro-2,3-dihydrobenzofuran-5-yl)sulfonyl)piperidin-4-yl)-1H-pyrrolo[2,3-c]pyridine]		> 10000
COc1ccc(S(=O)(=O)N2CCC(c3nn4ncnc4cc3C)CC2)c(C)c1 [Compound 186, 6-(1-((4-methoxy-2-methylphenyl)sulfonyl)piperidin-4-yl)-7-methyl-[1,2,4]triazolo[1,5-b]pyridazine]		> 10000
Cc1cc2ncnn2cc1C1(F)CCN(S(=O)(=O)c2cnn3c2OCCC3)CC1 [Compound 421, 3-((4-fluoro-4-(7-methyl-[1,2,4]triazolo[1,5-a]pyridin-6-yl)piperidin-1-yl)sulfonyl)-6,7-dihydro-5H-pyrazolo[5,1-b][1,3]oxazine]	69	
Cc1cc2nccn2nc1C1CCN(S(=O)(=O)c2ccc3ncccc3c2)CC1 [Compound 39, 6-((4-(7-methylimidazo[1,2-b]pyridazin-6-yl)piperidin-1-yl)sulfonyl)quinoline]		> 10000
Cc1nc(C)c(S(=O)(=O)N2CCC(c3cn4ncnc4cc3C)CC2C)s1 (stereo not drawn) [Compound 360, 2,4-dimethyl-5-((2-methyl-4-(7-methyl-[1,2,4]triazolo[1,5-a]pyridin-6-yl)piperidin-1-yl)sulfonyl)thiazole]		> 10000
Cn1ncc(S(=O)(=O)N2CC=C(c3c4ccccc4nn3C)CC2)c1C#N [Compound 490, 1-methyl-4-((4-(2-methyl-2H-indazol-3-yl)-3,6-dihydropyridin-1(2H)-yl)sulfonyl)-1H-pyrazole-5-carbonitrile]	7300	
O=S(=O)(c1ccc2c(c1)CCO2)N1CCC(c2cn3ncnc3cc2F)CC1 [Compound 105, 6-(1-((2,3-dihydrobenzofuran-5-yl)sulfonyl)piperidin-4-yl)-7-fluoro-[1,2,4]triazolo[1,5-a]pyridine]		2100
COC1(c2cn3ncnc3cc2C)CCN(S(=O)(=O)c2cnn(C)c2Cl)CC1 [Compound 415, 6-(1-((5-chloro-1-methyl-1H-pyrazol-4-yl)sulfonyl)-4-methoxypiperidin-4-yl)-7-methyl-[1,2,4]triazolo[1,5-a]pyridine]	> 10000	
Cc1cc2ncnn2cc1C1(F)CCN(S(=O)(=O)c2cnn(C)c2C(F)(F)F)CC1 [Compound 423, 6-(4-fluoro-1-((1-methyl-5-(trifluoromethyl)-1H-pyrazol-4-yl)sulfonyl)piperidin-4-yl)-7-methyl-[1,2,4]triazolo[1,5-a]pyridine]	912	
Cc1cc2nccn2nc1C1CCN(S(=O)(=O)c2cc3c(cc2F)OCC3)CC1 [Compound 52, 6-(1-((6-fluoro-2,3-dihydrobenzofuran-5-yl)sulfonyl)piperidin-4-yl)-7-methylimidazo[1,2-b]pyridazine]		5500
O=S(=O)(c1cnn2c1CCC2)N1CCC(c2ccc3ncnn3c2)CC1 [Compound 285, 6-(1-((5,6-dihydro-4H-pyrrolo[1,2-b]pyrazol-3-yl)sulfonyl)piperidin-4-yl)-[1,2,4]triazolo[1,5-a]pyridine]		51

The remaining lines, values ahead:

IC50 (vs EC80 acetylcholine) [nM]	IC50 [1] [nM]	Compound
186		O=S(=O)(c1cnc2sccn12)N1CCC(c2cn3ncnc3cc2F)CC1 [Compound 525, 5-((4-(7-fluoro-[1,2,4]triazolo[1,5-a]pyridin-6-yl)piperidin-1-yl)sulfonyl)imidazo[2,1-b]thiazole]
	> 10000	Cc1cc2ncnn2nc1C1CCN(S(=O)(=O)c2c(C)n[nH]c2C)CC1 [Compound 180, 6-(1-((3,5-dimethyl-1H-pyrazol-4-yl)sulfonyl)piperidin-4-yl)-7-methyl-[1,2,4]triazolo[1,5-b]pyridazine]
	1400	COc1cc2ncnn2cc1C1CCN(S(=O)(=O)c2cnn3c2CCC3)CC1 [Compound 263, 6-(1-((5,6-dihydro-4H-pyrrolo[1,2-b]pyrazol-3-yl)sulfonyl)piperidin-4-yl)-7-methoxy-[1,2,4]triazolo[1,5-a]pyridine]
15		O=S(=O)(c1cnn2ccccc12)N1CCC(c2cn3ncnc3cc2Cl)CC1 [Compound 544, 7-chloro-6-(1-(pyrazolo[1,5-a]pyridin-3-ylsulfonyl)piperidin-4-yl)-[1,2,4]triazolo[1,5-a]pyridine]
19		COc1c(S(=O)(=O)N2CCC(c3cn4ncnc4c(F)c3C)CC2)cnn1C [Compound 576, 8-fluoro-6-(1-((5-methoxy-1-methyl-1H-pyrazol-4-yl)sulfonyl)piperidin-4-yl)-7-methyl-[1,2,4]triazolo[1,5-a]pyridine]
	83	CCc1cc2ncnn2cc1C1CCN(S(=O)(=O)c2cnc3n2CCCC3)CC1 [Compound 335, 7-ethyl-6-(1-((5,6,7,8-tetrahydroimidazo[1,2-a]pyridin-3-yl)sulfonyl)piperidin-4-yl)-[1,2,4]triazolo[1,5-a]pyridine]
	1300	[2H]C([2H])([2H])n1cc(S(=O)(=O)N2CCC(c3cn4ncnc4cc3C)CC2)c(C2CC2)n1 [Compound 132, 6-(1-((3-cyclopropyl-1-(methyl-d3)-1H-pyrazol-4-yl)sulfonyl)piperidin-4-yl)-7-methyl-[1,2,4]triazolo[1,5-a]pyridine]
5060		Cn1ncc(S(=O)(=O)N2CCC(c3cn4ncnc4cc3F)CC2)c1CC#N [Compound 403, 2-(4-((4-(7-fluoro-[1,2,4]triazolo[1,5-a]pyridin-6-yl)piperidin-1-yl)sulfonyl)-1-methyl-1H-pyrazol-5-yl)acetonitrile]
	1200	Cc1cc2ncnn2cc1C1CCN(S(=O)(=O)c2cn(C(F)F)nc2C)CC1 [Compound 144, 6-(1-((1-(difluoromethyl)-3-methyl-1H-pyrazol-4-yl)sulfonyl)piperidin-4-yl)-7-methyl-[1,2,4]triazolo[1,5-a]pyridine]
	28	[2H]C([2H])([2H])n1ncc(S(=O)(=O)N2CCC(c3cn4ncnc4cc3C)CC2)c1C1CC1 [Compound 131, 6-(1-((5-cyclopropyl-1-(methyl-d3)-1H-pyrazol-4-yl)sulfonyl)piperidin-4-yl)-7-methyl-[1,2,4]triazolo[1,5-a]pyridine]
151		Cc1nnc(S(=O)(=O)N2CCC(c3cn4ncnc4cc3Cl)CC2)o1 [Compound 607]
291		Cc1cc2ncnn2cc1C1CCN(S(=O)(=O)c2cnc(Cl)s2)CC1 [Compound 523, 2-chloro-5-((4-(7-methyl-[1,2,4]triazolo[1,5-a]pyridin-6-yl)piperidin-1-yl)sulfonyl)thiazole]
	15	O=S(=O)(c1cnc2ccccn12)N1CCC(c2cn3ncnc3cc2Cl)CC1 [Compound 342, 7-chloro-6-(1-(imidazo[1,2-a]pyridin-3-ylsulfonyl)piperidin-4-yl)-[1,2,4]triazolo[1,5-a]pyridine]
9510		Cc1cc2ncnn2nc1C1CCN(S(=O)(=O)c2cnc(Cl)s2)CC1 [Compound 536, 2-chloro-5-((4-(7-methyl-[1,2,4]triazolo[1,5-b]pyridazin-6-yl)piperidin-1-yl)sulfonyl)thiazole]
493		Cc1cc2ncnn2cc1C1CCN(S(=O)(=O)c2nncn2C)CC1 [Compound 524, 7-methyl-6-(1-((4-methyl-4H-1,2,4-triazol-3-yl)sulfonyl)piperidin-4-yl)-[1,2,4]triazolo[1,5-a]pyridine]
	9.1	Cc1cc2ncnn2cc1C1CCN(S(=O)(=O)c2cnn(C)c2C(F)F)CC1 [Compound 156, 6-(1-((5-(difluoromethyl)-1-methyl-1H-pyrazol-4-yl)sulfonyl)piperidin-4-yl)-7-methyl-[1,2,4]triazolo[1,5-a]pyridine]
